Results taken from patent US11820760B2, “Crystalline polymorphs of Bruton's tyrosine kinase inhibitors” (BIOGEN MA INC., priority 2018, dated 2023).
One block for each compound: values may come before it.

Tests used:
Type in all cases: physicochemical
[1] = Variable temperature powder X-ray diffraction (VT-PXRD) of crystalline forms
Protocol: Crystallinity of the compound was studied using a XRD-D8 X-ray powder diffractometer using Cu Ka radiation (Bruker, Madison, Wis.). The instrument is equipped with a long fine focus X-ray tube. The tube voltage and amperage were set to 40 kV and 40 mA, respectively. The divergence and scattering slits were set at 1° and the receiving slit was set at 0.15 mm. Diffracted radiation was detected by a Lynxeye detector. A θ-2θ continuous scan at 1.6°/min from 3 to 42° 2θ was used. The sample was prepared for analysis by placing it on a zero background plate. Variable temperature powder X-ray diffraction (VT-PXRD) of Form B was performed by hearing a sample of Form B to 130° C. under N2, following by cooling back down to 30° C. […] (losing all water at this temperature) under N2, indicating Form B is a hygroscopic anhydrate. Variable temperature powder X-ray diffraction (VT-PXRD) of Form C was performed. A sample of Form C was dehydrated by purging the sample under N2 at 30° C. for 20 minutes and then heated to 100° C. under N2 followed by cooling back down to 30° C. and exposed to air for 20 minutes.

[2] = PXRD comparison of Form H before and after heating; settings: heated to 125° C.
Protocol: Crystallinity of the compound was studied using a XRD-D8 X-ray powder diffractometer using Cu Ka radiation (Bruker, Madison, Wis.). The instrument is equipped with a long fine focus X-ray tube. The tube voltage and amperage were set to 40 kV and 40 mA, respectively. The divergence and scattering slits were set at 1° and the receiving slit was set at 0.15 mm. Diffracted radiation was detected by a Lynxeye detector. A θ-2θ continuous scan at 1.6°/min from 3 to 42° 2θ was used. The sample was prepared for analysis by placing it on a zero background plate. A sample of Form H was heated to 125° C. and PXRD pattern was compared with PXRD pattern for the sample before heating.

[3] = PXRD of Form P after grinding in water; settings: Form P with 2.9 wt % water ground in water with mortar and pestle to a viscous slurry
Protocol: Crystallinity of the compound was studied using a XRD-D8 X-ray powder diffractometer using Cu Ka radiation (Bruker, Madison, Wis.). The instrument is equipped with a long fine focus X-ray tube. The tube voltage and amperage were set to 40 kV and 40 mA, respectively. The divergence and scattering slits were set at 1° and the receiving slit was set at 0.15 mm. Diffracted radiation was detected by a Lynxeye detector. A θ-2θ continuous scan at 1.6°/min from 3 to 42° 2θ was used. The sample was prepared for analysis by placing it on a zero background plate. Crystalline Form P with 2.9 wt % of water were prepared using similar procedures as described in Method A. Dichloromethane (15V) and n-propyl acetate (35 V) were used as solvents and the DSC/TGA graph is shown in FIG. 25. Crystalline Form P with 2.9 wt % of water was ground in water using a mortar and pestle to produce a viscous slurry. The sample was rapidly prepared, covered with Kapton film and analyzed by PXRD.

SMILES: Cn1cc(Nc2nccc(-c3ccc4c(c3)CN(C3COC3)CC[C@H]4NC(=O)c3cn(C(C)(C)C)nn3)n2)cn1 [Form B, (R)-1-(tert-butyl)-N-(8-(2-((1-methyl-1H-pyrazol-4-yl)amino)pyrimidin-4-yl)-2-(oxetan-3-yl)-2,3,4,5-tetrahydro-1H-benzo[c]azepin-5-yl)-1H-1,2,3-triazole-4-carboxamide]
form conversion after heating (VT-PXRD) ([1]; heated to 130° C. under N2, then cooled back to 30° C.): No form conversion

SMILES: Cn1cc(Nc2nccc(-c3ccc4c(c3)CN(C3COC3)CC[C@H]4NC(=O)c3cn(C(C)(C)C)nn3)n2)cn1 [Form C, (R)-1-(tert-butyl)-N-(8-(2-((1-methyl-1H-pyrazol-4-yl)amino)pyrimidin-4-yl)-2-(oxetan-3-yl)-2,3,4,5-tetrahydro-1H-benzo[c]azepin-5-yl)-1H-1,2,3-triazole-4-carboxamide]
form conversion after dehydration (VT-PXRD) ([1]; purging with N2 for 20 minutes at 30° C.): converted to Form L

SMILES: Cn1cc(Nc2nccc(-c3ccc4c(c3)CN(C3COC3)CC[C@H]4NC(=O)c3cn(C(C)(C)C)nn3)n2)cn1 [Form H, (R)-1-(tert-butyl)-N-(8-(2-((1-methyl-1H-pyrazol-4-yl)amino)pyrimidin-4-yl)-2-(oxetan-3-yl)-2,3,4,5-tetrahydro-1H-benzo[c]azepin-5-yl)-1H-1,2,3-triazole-4-carboxamide]
form conversion after heating (PXRD before/after) [2]: no form conversion

Results, then the compound that gave them:

form conversion after exposure to air (VT-PXRD) ([1]; exposure to air for about 2.5 hours, re-absorbs water): converts back to Form C
SMILES: Cn1cc(Nc2nccc(-c3ccc4c(c3)CN(C3COC3)CC[C@H]4NC(=O)c3cn(C(C)(C)C)nn3)n2)cn1 [Form L, (R)-1-(tert-butyl)-N-(8-(2-((1-methyl-1H-pyrazol-4-yl)amino)pyrimidin-4-yl)-2-(oxetan-3-yl)-2,3,4,5-tetrahydro-1H-benzo[c]azepin-5-yl)-1H-1,2,3-triazole-4-carboxamide]

PXRD peak shifts after grinding in water [3]: No peak shifts
SMILES: Cn1cc(Nc2nccc(-c3ccc4c(c3)CN(C3COC3)CC[C@H]4NC(=O)c3cn(C(C)(C)C)nn3)n2)cn1 [Form P, (R)-1-(tert-butyl)-N-(8-(2-((1-methyl-1H-pyrazol-4-yl)amino)pyrimidin-4-yl)-2-(oxetan-3-yl)-2,3,4,5-tetrahydro-1H-benzo[c]azepin-5-yl)-1H-1,2,3-triazole-4-carboxamide]
